For one data set, the system named is Culex fatigans. The data set is described as follows: whole plant or invertebrate. As to conditions: Culex quinquefasciatus, 24 h, read-out: Mosquitoes LC50. As for the experimental part:
The appropriate amount of stock solution was added with stirring to 100 ml of tap water and 20-25 fourth instar larvae of Culex fatigans were placed in the solution. After twenty-four hours, the counts were taken. Larvae not able to rise to the surface on touch were counted as dead. Each concentration was run in duplicate and each material was run on two or three different days. The average percent mortality was plotted against the logarithm of the concentration (in ppm) and the LC50 value determined by inspection.

Another data set can be described thus: in vivo. Conditions: mouse, po. As for the experimental part:
Acute oral toxicity of the compounds of the present invention to mice was determined after the manner of Hollingworth, Fukuto, and Metcalf in J. Agr. […] A dose of 0.25 ml of each solution was administered to each of four female white Swiss mice using the "bolus" - tipped syringe. […] Final mortality determinations were made forty-eight hours after treatment.

For data set [1], the system named is southern army worm. As to conditions: 2880 min.
The test system of data set [2] is Mexican bean beetle. The data set is described as follows: whole plant or invertebrate. Conditions: Epilachna varivestis, 48 h, read-out: % Kill, BB (systemic).
The subject of data set [3] is pea aphid. Put plainly: whole plant or invertebrate. As to conditions: Acyrthosiphon pisum, 48 h, read-out: % Kill, PA (systemic).
Data set [4] deals with two-spotted spider mite. The data set is described as follows: whole plant or invertebrate. Conditions: Tetranychus urticae, 48 h.
The test system of a further data set is houseflies. Put plainly: whole plant or invertebrate. Conditions: Musca domestica, topical, 24 h, read-out: Houseflies LD50. How it is done: Toxicity of the compounds of the present invention to houseflies was tested using the technique described by March and Metcalf in Bull. Calif. State Dept. Agr. […] Adult female houseflies were treated with one drop of acetone solution, applied to the prothorax, using a syringe calibrated to deliver 1.00 ± 0.05 mm^3 drops. Twenty flies were treated at each dosage, each test compound was applied at 8 to 10 dosage levels. Each test was replicated three times. […] A one-inch square of cotton saturated with 40% sugar solution was provided for food in each carton. The cartons of flies were held in a constant temperature chamber at 60° F and 60% relative humidity for 24 hours before mortality counts were made. Flies totally unable to make crawling or walking movements were counted as dead. LD50 values were calculated in the conventional manner.

The test system of data set [5] is pea aphid. Put plainly: Initial contact activity, pea aphid. Conditions: Acyrthosiphon pisum, 48 h, read-out: % Kill, PA (initial contact).
Data set [6] deals with pea aphid. Put plainly: Residual contact activity, pea aphid. As to conditions: Acyrthosiphon pisum, 48 h, read-out: % Kill, PA (residual contact).
The test system of data set [7] is milkweed bug. Put plainly: Initial contact activity, milkweed bug. As to conditions: Oncopeltus fasciatus, 48 h, read-out: % Kill, MWB (initial contact).
In data set [8] the test system is plum curculio. Put plainly: Initial contact activity, plum curculio. As to conditions: Conotrachelus nenuphar, 48 h, read-out: % Kill, PC (initial contact).
Data set [9] deals with milkweed bug. The data set is described as follows: Residual contact activity, milkweed bug. Conditions: Oncopeltus fasciatus, 48 h, read-out: % Kill, MWB (residual contact).
In data set [10] the test system is granary weevil. The data set is described as follows: Initial contact activity, granary weevil. Conditions: Sitophilus granarius, 48 h, read-out: % Kill, GW (initial contact).
Data set [11] concerns plum curculio. The data set is described as follows: Residual contact activity, plum curculio. As to conditions: Conotrachelus nenuphar, 48 h, read-out: % Kill, PC (residual contact).
Data set [12] relates to granary weevil. The data set is described as follows: Residual contact activity, granary weevil. As to conditions: Sitophilus granarius, 48 h, read-out: % Kill, GW (residual contact).
The subject of data set [13] is southern army worm. Put plainly: Initial contact activity, southern army worm. As to conditions: 1250 ppm, 48 h exposure.
Data set [14] deals with Mexican bean beetle. The data set is described as follows: Initial contact activity, Mexican bean beetle. Conditions: Epilachna varivestis, 48 h, read-out: % Kill, BB (initial contact).
For data set [15], the system named is southern army worm. The data set is described as follows: Residual contact activity, southern army worm. As to conditions: 1250 ppm; 7 days; 2880 min.
Data set [16] relates to Mexican bean beetle. The data set is described as follows: Residual contact activity, Mexican bean beetle. Conditions: Epilachna varivestis, 48 h, read-out: % Kill, BB (residual contact).
Data set [17] concerns two-spotted spider mite. The data set is described as follows: Initial contact activity, two-spotted spider mite. Conditions: Tetranychus urticae, 48 h, read-out: % Kill, SM (initial contact).
The subject of data set [18] is two-spotted spider mite. Put plainly: Residual contact activity, two-spotted spider mite. As to conditions: Tetranychus urticae, 48 h, read-out: % Kill, SM (residual contact).
The mark [19] stands for this setting: 39 ppm soil watering, group printed before the slash (separate test vs carbofuran).
Setting [20] is: read-out: % Kill, SM (systemic).

Molecules are shown by their SMILES. In brackets after ≈: the same amount, converted by molar mass. Read-outs that look alike come from different tables or passages of the source.

In the case of `CNC(=O)Oc1cccc2c1OC(C)(C)C2` [Carbofuran, 2,3-dihydro-2,2-dimethyl-7-benzofuranyl methylcarbamate, reference compound], the LC50 in the data set with Culex fatigans worked out at 52 ng/mL (≈ 0.235 µM). In the data set “in vivo”, this compound showed an LD50 at 48 h of 2 mg/kg. Also, the “% Kill, AW (systemic)” value with southern army worm [1] (setting [19]) is reported as 50%; in the data set with southern army worm [1] (39 ppm soil watering, separate test vs carbofuran), 100%; with southern army worm [1] (156 ppm soil watering), 100%. Further, the mortality at 39 ppm in the data set with Mexican bean beetle [2] stood at 100%; with pea aphid [3], 100%; in the data set with two-spotted spider mite [4] (read-out: % Kill, SM (systemic), 39 ppm soil watering, group printed before the slash (separate test vs carbofuran)), 5%; in the data set on two-spotted spider mite [4] (read-out: % Kill, SM (systemic), 39 ppm soil watering, separate test vs carbofuran), 3%. The mortality at 156 ppm was 100% in the data set with Mexican bean beetle [2]; 100% in the data set with pea aphid [3]; 43% in the data set with two-spotted spider mite [4] (read-out: % Kill, SM (systemic), 156 ppm soil watering, group printed before the slash (separate test vs carbofuran)); 70% with two-spotted spider mite [4] (read-out: % Kill, SM (systemic), 156 ppm soil watering, separate test vs carbofuran).
Consider `CN(Sc1ccccc1)C(=O)Oc1cccc2c1OC(C)(C)C2` [Example I, 2,3-Dihydro-2,2-dimethyl-7-benzofuranyl (methyl)(phenylthio)carbamate], for which the LD50 with houseflies was determined as 9.3 mg/kg. In addition, the LC50 in the data set with Culex fatigans worked out at 4.5 ng/mL (≈ 0.0137 µM). Besides, the median lethal dose (LD50) at 48 h in “in vivo” fell in the range of 25 to 50 mg/kg.
As for `CN(Sc1ccc(Cl)cc1)C(=O)Oc1cccc2c1OC(C)(C)C2` [Example V, 2,3-Dihydro-2,2-dimethyl-7-benzofuranyl (4-chlorophenylthio)(methyl)carbamate], in the data set on houseflies, the LD50 worked out at 12.5 mg/kg. The LC50 with Culex fatigans was 2 ng/mL (≈ 0.0055 µM). Further, the LD50 at 48 h in “in vivo” was 50 mg/kg. For the same compound, the “% Kill, AW (systemic)” value in the data set on southern army worm [1] (setting [19]) is reported as 50%; with southern army worm [1] (156 ppm soil watering), 80%. Further, the mortality at 39 ppm with Mexican bean beetle [2] turned out to be 95%; in the data set on pea aphid [3], 100%; in the data set on two-spotted spider mite [4] (setting [20]), 29%. Besides, the results for the mortality at 156 ppm in the data set on Mexican bean beetle [2], with pea aphid [3] and with two-spotted spider mite [4] (setting [20]) were 100%, 100% and 33%, respectively. The mortality at 1250 ppm with pea aphid [5] came to 100%; in the data set on pea aphid [6], 95%; with milkweed bug [7] it was 100%; with plum curculio [8] it was 100%; in the data set on milkweed bug [9], 100%; in the data set with granary weevil [10], 100%. For the same compound, the mortality at 1250 ppm was found to be 95% in the data set on plum curculio [11]; 100% in the data set with granary weevil [12]; 100% in the data set with Mexican bean beetle [14]; 100% in the data set on Mexican bean beetle [16]; 100% in the data set on two-spotted spider mite [17]; 5% with two-spotted spider mite [18]. In addition, in the data set with southern army worm [13], the “% Kill, AW (initial contact)” value is listed as 100%. Besides, in the data set on southern army worm [15], the “% Kill, AW (residual contact)” value is on record as 100%.
`CN(Sc1nc2ccccc2s1)C(=O)Oc1cccc2c1OC(C)(C)C2` [Example VII, 2,3-Dihydro-2,2-dimethyl-7-benzofuranyl (2-benzothiazolylthio)(methyl)carbamate]: the LD50 in the data set with houseflies came to 8.5 mg/kg. Besides, the LC50 in the data set on Culex fatigans was found to be 9.5 ng/mL (≈ 0.0246 µM). For the same compound, in “in vivo”, the LD50 at 48 h was 50 mg/kg. The “% Kill, AW (systemic)” value in the data set with southern army worm [1] (setting [19]) was determined as 0%; in the data set with southern army worm [1] (156 ppm soil watering), 60%. In addition, the mortality at 39 ppm in the data set on Mexican bean beetle [2] worked out at 68%; with pea aphid [3], 100%; with two-spotted spider mite [4] (setting [20]), 3%. Moreover, the mortality at 156 ppm turned out to be 81% in the data set on Mexican bean beetle [2], 100% with pea aphid [3] and 2% with two-spotted spider mite [4] (setting [20]). Further, the mortality at 1250 ppm was found to be 100% in the data set on pea aphid [5]; 0% with pea aphid [6]; 100% in the data set on milkweed bug [7]; 100% with plum curculio [8]; 100% in the data set on milkweed bug [9]; 100% with granary weevil [10]. Besides, the mortality at 1250 ppm in the data set with plum curculio [11] is 55%; with granary weevil [12], 100%; in the data set on Mexican bean beetle [14], 91%; in the data set with Mexican bean beetle [16] it was 100%; in the data set on two-spotted spider mite [17], 72%; with two-spotted spider mite [18], 5%. Besides, the “% Kill, AW (initial contact)” value in the data set with southern army worm [13] is recorded as 62%. Further, in the data set on southern army worm [15], the “% Kill, AW (residual contact)” value is on record as 100%.
With `COc1ccc(SN(C)C(=O)Oc2cccc3c2OC(C)(C)C3)cc1` [IX, 2,3-Dihydro-2,2-dimethyl-7-benzofuranyl (4-methoxyphenylthio)(methyl)carbamate], in the data set on houseflies, the LD50 turned out to be 7.8 mg/kg. In the data set on Culex fatigans, the LC50 was 6 ng/mL (≈ 0.0167 µM). For the same compound, in the data set “in vivo”, the LD50 at 48 h lay within 25 to 50 mg/kg.
In the case of `CN(Sc1ccc(Br)cc1)C(=O)Oc1cccc2c1OC(C)(C)C2` [VIII, 2,3-Dihydro-2,2-dimethyl-7-benzofuranyl (4-bromophenylthio)(methyl)carbamate], in the data set on houseflies, the LD50 is 9 mg/kg. Moreover, in the data set with Culex fatigans, the LC50 came to 4 ng/mL (≈ 0.0098 µM). In addition, the LD50 at 48 h in “in vivo” was 50 to 75 mg/kg.
As for `CC(C)c1ccccc1SN(C)C(=O)Oc1cccc2c1OC(C)(C)C2` [XII, 2,3-Dihydro-2,2-dimethyl-7-benzofuranyl (2-isopropylphenylthio) (methyl)carbamate], in the data set on houseflies, the LD50 stood at 8.3 mg/kg. The LC50 in the data set with Culex fatigans was 3 ng/mL (≈ 0.00808 µM). Also, in the data set “in vivo”, the LD50 at 48 h is 50 to 75 mg/kg.
For `Cc1ccc(SN(C)C(=O)Oc2cccc3c2OC(C)(C)C3)c(C)c1` [XIII, 2,3-Dihydro-2,2-dimethyl-7-benzofuranyl (2,4-dimethylphenylthio)(methyl)carbamate], the LD50 with houseflies stood at 9 mg/kg. The LC50 with Culex fatigans worked out at 3 ng/mL (≈ 0.00839 µM). In “in vivo”, this compound returned an LD50 at 48 h of 50 to 100 mg/kg.
Take `CN(Sc1ccc(C#N)cc1)C(=O)Oc1cccc2c1OC(C)(C)C2` [XV, 2,3-Dihydro-2,2-dimethyl-7-benzofuranyl (4-cyanophenylthio)(methyl)carbamate]: in the data set with houseflies, the LD50 came to 22.5 mg/kg. Besides, in the data set with Culex fatigans, the LC50 worked out at 22 ng/mL (≈ 0.0621 µM). In the data set “in vivo”, this compound gave a median lethal dose (LD50) at 48 h of 25 to 50 mg/kg.
In the case of `CN(Sc1ccc2ccccc2c1)C(=O)Oc1cccc2c1OC(C)(C)C2` [XVII, 2,3-Dihydro-2,2-dimethyl-7-benzofuranyl (methyl)(2-naphthylthio)carbamate], in the data set with houseflies, the LD50 was 8 mg/kg. Moreover, the LC50 with Culex fatigans amounted to 3.2 ng/mL (≈ 0.00843 µM). Moreover, in the data set “in vivo”, the LD50 at 48 h was found to be 40 mg/kg.

(Values after patent US3997549A, “N-arylsulfenylated derivatives of benzofuranyl methylcarbamates” (priority 1973, dated 1976).)
